Source: patent US9567347B2, “Use of small molecule inhibitors targeting the interaction between RAC GTPase and p67(phox)” (CHILDREN'S HOSPITAL MEDICAL CENTER, priority 2012, dated 2017)
Where two headings read alike, the source gives them in different places.

Experiments:
[1] = tested on: fMLP-stimulated differentiated HL-60 cells; experiment: H2-DCFDA FACS ROS production assay in fMLP-stimulated differentiated HL-60 cells; format: cell-based, human; conditions: for IC50: dHL-60 cells, DCFDA assay; for inhibition of ROS production, Phox-I1 analogs: FIG. 3B
Procedure: HL-60 cells were propagated in RPMI 1640 medium containing 10% heat inactivated fetal bovine serum, 2 mM L-glutamine, 100 U/mL penicillin/streptomycin at 37° C. in air containing 5% CO2. For differentiation, HL-60 cells were cultured in 1.3% dimethyl sulfoxide (DMSO) as previously described (Servant, G., et al. (1999) Mol Biol Cell 10, 1163-1178, hereby incorporated by reference in its entirety). Primary murine neutrophils were isolated from C57Bl/6 mouse bone marrow according to a published protocol (Filippi et al., (2004) Nat Immunol 5, 744-751, hereby incorporated by reference in its entirety) using a discontinuous Percoll (Pharmacia) gradient and were utilized immediately in experiments. Human neutrophils were obtained from fresh blood (IRB #2010-1855, Cincinnati Children's Hospital medical Center) following a well established protocol using density gradient separation from whole blood (Oh et al. (2008) J Vis Exp., 17, pii: 745, hereby incorporated by reference in its entirety).
(§1) Cells (5×10^5) were harvested and processed for Annexin V/7AAD staining according to manufacturer's protocol (Becton Dickinson). Flow cytometry data were acquired on a FACS Canto bench-top flow cytometer (Becton Dickinson) and the cell cycle distributions were determined by […] using Flo-Jo software (Bosco et al (2010) Blood 115, 3320-3328, hereby incorporated by reference in its entirety). For ROS production assay, primary murine neutrophils or dHL60 cells were incubated with compound for 2 hours prior to addition of H2-DCFDA according to manufacturer's instructions (Molecular Probes). Cells were then stimulated with 10 μM fMLP (Sigma), 1 mM CaCl2, and 1.5 mM MgCl2 for 15 minutes prior to wash and FACS analysis for mean fluorescence intensity. Non-fMLP stimulated control values were subtracted from all samples before normalization to fMLP-stimulated, vehicle control treated sample in order to display percent ROS inhibition.
To validate the hits from preliminary screening in cells, several cellular functional assays were performed using different cell types to measure the effect of compounds on inhibition of ROS production. ROS levels were first analyzed by fluorescence-activated cell sorting (FACS) in HL-60 pre-incubated with compounds for 2 hr prior to stimulation of ROS production. The p67^phox inhibitor, Phox-I1, was tested against NAC (a ROS scavenger), DPI (a broad range inhibitor of NADPH oxidase), and NSC23766 (a Rac-GTP inhibitor; FIG. 2A). […] H2O2 added to the cells was included as a positive control for ROS measurement. Second, to test the capacity of Phox-I1 to inhibit ROS production in a primary cell context, primary murine neutrophils isolated from mouse bone marrow were treated with increasing concentrations of Phox-I1 and the efficacy of inhibition of fMLP-stimulated ROS production was analyzed. DPI treatment was included as a positive control for inhibition of ROS production (FIG. 2B). […] Next, to ascertain the optimal effective dose for ROS inhibition in cells, a dose titration series of Phox-I1 was administered to dHL-60 cells (FIG. 2C).

[2] = tested on: primary human neutrophils; experiment: luminol chemiluminescence assay of fMLP-induced ROS production; format: cell-based
Procedure: HL-60 cells were propagated in RPMI 1640 medium containing 10% heat inactivated fetal bovine serum, 2 mM L-glutamine, 100 U/mL penicillin/streptomycin at 37° C. in air containing 5% CO2. For differentiation, HL-60 cells were cultured in 1.3% dimethyl sulfoxide (DMSO) as previously described (Servant, G., et al. (1999) Mol Biol Cell 10, 1163-1178, hereby incorporated by reference in its entirety). Primary murine neutrophils were isolated from C57Bl/6 mouse bone marrow according to a published protocol (Filippi et al., (2004) Nat Immunol 5, 744-751, hereby incorporated by reference in its entirety) using a discontinuous Percoll (Pharmacia) gradient and were utilized immediately in experiments. Human neutrophils were obtained from fresh blood (IRB #2010-1855, Cincinnati Children's Hospital medical Center) following a well established protocol using density gradient separation from whole blood (Oh et al. (2008) J Vis Exp., 17, pii: 745, hereby incorporated by reference in its entirety). […]
Chemiluminescence was measured using GloMax®-96 Microplate Luminometer (Promega) (Tarpey et al., (2004) Am J Physiol Regul Integr Comp Physiol 286: R431-R444, hereby incorporated by reference in its entirety). […]

[3] = tested on: fMLP-activated primary murine neutrophils; experiment: Nitroblue tetrazolium (NBT) assay; format: cell-based, mouse; conditions: 10 μM, FIG. 3C
Procedure: Primary neutrophils from mouse bone marrow were subjected to fMLP stimulation in the presence or absence of various chemicals for 5 min. Cells were stained for NBT activity as previously described in the incorporated materials of Filippi et al. (2004) to reveal relative ROS production.
To complement the DCFDA based FACS analysis and the luminol chemiluminescence method, nitroblue tetrazolium (NBT) assays were performed in fMLP-activated primary murine neutrophils (FIG. 3C).
The NBT assay was performed in primary murine neutrophils to measure ROS neutrophil production. […] Each compound was used at 10 μM.

[4] = tested on: undifferentiated HL-60 cells; experiment: apoptosis analysis by FACS (Annexin V / 7-AAD); format: cell-based, human; conditions: 20 or 100 μM
Procedure: as §1
In order to determine potency and cytotoxicity of Phox-I1 and Phox-I2, the levels of apoptosis were assessed in undifferentiated HL-60 cells treated with 20 or 100 μM Phox-I1, Phox-I2, or NSC23766 by FACS analysis for Annexin V (FIG. 4A).

Pak = experiment: immunoblot of phosphorylated Pak; format: cell-based, human; conditions: 18 hr treatment
Procedure: Whole-cell lysates were prepared by cell extraction using lysis buffer containing 20 mM Tris-HCl (pH 7.6), 100 mM NaCl, 10 mM MgCl2, 1% Triton X-100, 0.2% sodium deoxycholate, 1 mM phenylmethylsulfonyl fluoride, 10 μg/mL of leupeptin, 1 μg/mL of aprotinin, and 1 mM dithiothreitol for 30 min. Equal amounts of protein, as determined by Bradford assay, were resolved by SDS-PAGE. Specific proteins were detected by standard 9 immunoblotting procedures using the following primary antibodies: (Cell Signaling, 1:500 dilution) phospho-PAK1 (Ser144)/PAK2 (Ser141), (Sigma-Aldrich 1:500) β-Actin.
To analyze the biochemical specificity of these lead inhibitors on the effector pathways of active Rac1, undifferentiated HL-60 cells were treated with Phox-I1, Phox-I2, or NSC23766 for 18 hr. Immunoblot of the cell lysates was performed to probe the activity of Pak, a Rac effector other than p67^phox (FIG. 4B).

IC50 [1] [µM]	IC50 [2] [µM]	IC50 ([1]; Homo sapiens, HL-60) [µM]	IC50 ([2]; Neutrophil) [µM]	Structure (SMILES)	inhibition of ROS production, Phox-I1 analogs ([1]; pre-incubated 2 hr, listed as Analog 16)	inhibition of ROS production, Phox-I1 analogs ([1]; pre-incubated 2 hr, listed as analog 16)	superoxide production (NBT) [3]	cell apoptosis (Annexin V) [4]	phosphorylated Pak levels (Pak)	ROS production compared to standard ROS inhibitors ([1]; 20 μM, pre-incubated 2 hr)	dose of optimal cellular response ([1]; dose titration in dHL-60 cells) [µM]	inhibition of ROS production, Phox-I1 analogs ([1]; pre-incubated 2 hr)
~1	~6	–	–	O=[N+]([O-])c1cccc(C2Nc3ccc([N+](=O)[O-])cc3C3C=CCC32)c1 (stereo not drawn) [Phox-I2]	improved ROS inhibition over Phox1	greatest inhibition of ROS production	heightened	no detectable effect on cell apoptosis	not	–	–	–
–	–	~3	~8	COc1ccc2c(c1)C1C=C(c3ccccc3)NN1C(c1cccc([N+](=O)[O-])c1)O2 (stereo not drawn) [Phox-I1]	–	–	significant blockade of superoxide production	no detectable effect on cell apoptosis	not	able to attenuate ROS production	10	greatest inhibition of ROS production
